Molecules are shown by their SMILES.

This assay has as its target T1, human SCD1 enzyme (Homo sapiens, UniProt O00767).
T1 sequence (O00767 1-359): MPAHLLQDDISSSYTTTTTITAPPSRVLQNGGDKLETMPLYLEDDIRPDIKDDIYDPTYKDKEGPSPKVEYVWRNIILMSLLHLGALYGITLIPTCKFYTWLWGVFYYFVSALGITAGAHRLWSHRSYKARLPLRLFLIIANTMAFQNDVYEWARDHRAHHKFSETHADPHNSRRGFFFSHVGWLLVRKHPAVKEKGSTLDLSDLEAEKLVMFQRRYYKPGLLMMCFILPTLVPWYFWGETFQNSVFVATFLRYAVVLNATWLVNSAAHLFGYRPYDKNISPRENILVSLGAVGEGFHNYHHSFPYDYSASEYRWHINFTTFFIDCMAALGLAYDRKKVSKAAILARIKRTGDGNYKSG
The experiment in a line: Tritiated water release assay (conversion of radiolabeled stearoyl-CoA to oleoyl-CoA). The following applies: 10 μM concentration of test compounds; microsomal SCD1, 3H stearoyl CoA, 37° C. 30 minutes; percent of control reaction; read-out: % Inhibition. The format is biochemical. The procedure:
The in-vitro activity of the compounds of the present invention against stearoyl coenzyme desaturase was determined by following conversion of radiolabeled-stearoyl-CoA to oleoyl-CoA using human SCD1 enzyme using a previously published assay procedure with some modifications (Barbara R Talamo and Konrad Bloch, Analytical Biochemistry, 1969, 29, 300-304). This assay protocol is only illustrative and is not meant to limit to the scope of the present invention.
In this assay the microsomal SCD1 enzyme desaturates its substrate, Stearoyl CoA (purchased from American Radiochemicals Ltd.) which is tritiated at C9 and C10 positions. Test compounds were dissolved in dimethylsulfoxide and tested at 10 μM final concentration. Before substrate addition, the test compound or standard reference compound (conjugated linoleic acid at 100 μM final concentration) were pre-incubated in reaction buffer with the enzyme for 10 minutes at 30° C. with shaking. Reaction buffer was prepared as described in literature (Obukowicz et al. JPET, 1998, 287, 157-166) except that the MgCl2, ATP (purchased from Sigma) and CoA (purchased from Sigma) concentrations were changed to 4.9 mM, 7.2 mM and 0.54 mM respectively. The desaturation reaction was initiated by addition of 0.5 μCi of ^3H stearoyl CoA and incubated at 37° C. for 30 minutes with shaking. A control reaction was set without any test compound/reference inhibitor to capture maximum enzymatic activity in the assay. Inhibition of enzyme activity was calculated as a percent of this control reaction giving maximum catalysis and the results are given in Table 5.
Table 5: Tritiated water release assay at 10 μM substrate concentration *Conjugated Linoleic acid was used as a reference standard

For orientation: inhibition means the change of the read-out against control, counted positive when it falls. As for `CC(=O)Oc1cccc(C#Cc2ccc(N3CCC(Oc4ccccc4F)C3)nn2)c1` (stereo in doubt) [Example 68, 3-(2-{6-[(3S)-3-(2-Fluorophenoxy)azolan-1-yl]-3-pyridazinyl}-1-ethynyl)phenyl acetate], the inhibition at 10 µM is 92%.

With `CC(=O)Oc1ccc(C#Cc2ccc(N3CCC(Oc4ccccc4F)C3)nn2)cc1` (stereo in doubt) [Example 70, 4-[{6-[(3S)-3-(2-Fluorophenoxy)azolan-1-yl]pyridazin-3-yl}ethynyl]phenyl acetate], the inhibition at 10 µM turned out to be 96%.

As for `Oc1ccc(C#Cc2ccc(N3CCC(Oc4ccccc4F)C3)nn2)cc1` (stereo in doubt) [Example 71, 4-[{6-[(3S)-3-(2-Fluorophenoxy)azolan-1-yl]pyridazin-3-yl}ethynyl]phenol], the inhibition at 10 µM was found to be 95%.

Take `O=C(c1ccccc1C(F)(F)F)N1CCN(c2ccc(C#CCO)cn2)CC1` [Example 1, 4-[5-(3-Hydroxy-1-propynyl)-2-pyridyl]piperazino-2-trifluoromethylphenylmethanone]: the inhibition at 10 µM turned out to be 36%.

In the case of `O=C(c1cc(Cl)ccc1Cl)N1CCN(c2ccc(C#CCO)cn2)CC1` [Example 2, 4-[5-(3-Hydroxy-1-propynyl)-2-pyridyl]piperazino-2,5-dichlorophenylmethanone], the inhibition at 10 µM was found to be 57%.

`O=C(c1ccccc1C(F)(F)F)N1CCN(c2ccc(C#CCO)nn2)CC1` [Example 3, 4-[6-(3-Hydroxy-1-propynyl)-3-pyridazinyl]piperazino-2-trifluoromethylphenyl-methanone]: the inhibition at 10 µM stood at 51%.

As to `CC(C)(O)C#Cc1cnc(N2CCN(C(=O)c3ccccc3C(F)(F)F)CC2)nc1` [Example 4, 4-[5-(3-Hydroxy-3-methyl-1-butynyl)-2-pyrimidinyl]piperazino-2-trifluoromethylphenyl-methanone], the inhibition at 10 µM amounted to 22%.

Turning to `O=C(c1ccccc1C(F)(F)F)N1CCN(c2ccc(C#CC3(O)CCCC3)cn2)CC1` [Example 5, 4-{5-[2-(1-Hydroxycyclopentyl)-1-ethynyl]-2-pyridyl}piperazino-2-trifluoromethyl phenylmethanone], the inhibition at 10 µM is 19%.

Consider `CCC(O)C#Cc1ccc(N2CCN(C(=O)c3ccccc3C(F)(F)F)CC2)nc1` (stereo not drawn) [Example 6, 4-[5-(3-Hydroxy-1-pentynyl)-2-pyridyl]piperazino-2-trifluoromethylphenylmethanone], for which the inhibition at 10 µM is 24%.

As for `O=C(c1ccccc1C(F)(F)F)N1CCN(c2ccc(C#CC(O)C34CC5CC(CC(C5)C3)C4)cn2)CC1` (stereo not drawn) [Example 7, 4-[5-{3-Hydroxy-3-(1-adamantyl)-1-propynyl}-2-pyridyl]piperazino-2-trifluoromethyl-phenylmethanone], the inhibition at 10 µM came out at 0.35%.

For `O=C(c1ccccc1C(F)(F)F)N1CCN(c2ccc(C#CC(O)c3ccccc3)cn2)CC1` (stereo not drawn) [Example 8, 4-[5-(3-Hydroxy-3-phenyl-1-propynyl}-2-pyridyl}piperazino-2-trifluoromethylphenyl-methanone], the inhibition at 10 µM is 42%.

On to `O=C(c1ccccc1C(F)(F)F)N1CCN(c2ccc(C#CCOC3CCCC3)cn2)CC1` [Example 9, 4-[5-(3-Cyclopentyloxy-1-propynyl)-2-pyridyl]piperazino-2-trifluoromethylphenyl-methanone], for which the inhibition at 10 µM came to 86%.

On to `CC(C)(C)c1ccc(OCC#Cc2ccc(N3CCN(C(=O)c4ccccc4C(F)(F)F)CC3)nc2)cc1` [Example 10], for which the inhibition at 10 µM came out at 37%.

Turning to `O=C(c1ccccc1C(F)(F)F)N1CCN(c2ccc(C#CCOc3ccc(F)cc3)cn2)CC1` [Example 11, 4-[5-(3-(4-Fluorophenoxy)-1-propynyl)-2-pyridyl]piperazino-2-trifluoromethylphenyl-methanone], the inhibition at 10 µM is 63%.

In the case of `N#Cc1ccc(OCC#Cc2ccc(N3CCN(C(=O)c4ccccc4C(F)(F)F)CC3)nc2)nc1` [Example 12], the inhibition at 10 µM was determined as 11%.

For the compound `O=C(c1ccccc1C(F)(F)F)N1CCN(c2ccc(C#CCOc3ccc(O)cc3)cn2)CC1` [Example 13], the inhibition at 10 µM was 92%.

As to `Fc1ccc(OCC#Cc2ccc(N3CCN(c4ccc(C(F)(F)F)cn4)CC3)nc2)cc1` [Example 14, 1-{5-[3-(4-Fluorophenoxy)prop-1-yn-1-yl]-2-pyridyl}-4-(5-trifluoromethylpyridin-2-yl)piperazine], the inhibition at 10 µM is 35%.

On to `CC(=O)NCC#Cc1ccc(N2CCN(C(=O)c3ccccc3C(F)(F)F)CC2)nc1` [Example 15, N1-(3-{6-[4-(2-Trifluoromethylbenzoyl)piperazino]-3-pyridyl}-2-propynyl)acetamide], for which the inhibition at 10 µM was 49%.

For the compound `CCCCS(=O)(=O)NCC#Cc1ccc(N2CCN(C(=O)c3ccccc3C(F)(F)F)CC2)nc1` [Example 16, N1-(3-{6-[4-(2-Trifluoromethylbenzoyl)piperazino]-3-pyridyl}-2-propynyl)-1-butane sulfonamide], the inhibition at 10 µM came out at 42%.

On to `CCCC#Cc1ccc(N2CCN(C(=O)c3ccccc3C(F)(F)F)CC2)nc1` [Example 17, 4-[5-(1-Pentynyl)-2-pyridyl]piperazino-2-trifluoromethylphenylmethanone], for which the inhibition at 10 µM came to 40%.

`CC(C)(C)C#Cc1ccc(N2CCN(C(=O)c3ccccc3C(F)(F)F)CC2)nc1` [Example 18, 4-[5-(3,3-Dimethyl-1-butynyl)-2-pyridyl]piperazino-2-trifluoromethylphenylmethanone]: the inhibition at 10 µM was determined as 26%.

Regarding `CC(C)(C)C#Cc1ccc(N2CCN(C(=O)c3cc(Cl)ccc3Cl)CC2)nc1` [Example 19, 2,5-Dichlorophenyl-4-[5-(3,3-dimethyl-1-butynyl)-2-pyridyl]piperazinomethanone], the inhibition at 10 µM worked out at 14%.

As to `O=C(c1ccccc1C(F)(F)F)N1CCN(c2ccc(C#Cc3ccccc3)cn2)CC1` [Example 20, 4-[5-(2-Phenyl-1-ethynyl)-2-pyridyl]piperazino-2-trifluoromethylphenylmethanone], the inhibition at 10 µM was found to be 38%.

`O=C(c1cc(Cl)ccc1Cl)N1CCN(c2ccc(C#Cc3ccccc3)cn2)CC1` [Example 21, 2,5-Dichlorophenyl-4-[5-(2-phenyl-1-ethynyl)-2-pyridyl]piperazinomethanone]: the inhibition at 10 µM is 40%.

On to `CC(=O)Oc1ccc(C#Cc2ccc(N3CCN(C(=O)c4ccccc4C(F)(F)F)CC3)nc2)cc1` [Example 22], for which the inhibition at 10 µM is 84%.

With `O=C(c1ccccc1C(F)(F)F)N1CCN(c2ccc(C#Cc3ccc(O)cc3)cn2)CC1` [Example 23, 4-{5-[2-(4-Hydroxyphenyl)-1-ethynyl]-2-pyridyl}piperazino-2-trifluoromethylphenyl methanone], the inhibition at 10 µM came out at 91%.

Turning to `O=C(c1ccccc1C(F)(F)F)N1CCN(c2ccc(C#Cc3ccc(O)c(F)c3)cn2)CC1` [Example 24, 1-{5-[(3-Fluoro-4-hydroxyphenyl)ethynyl]-2-pyridyl}piperazin-4-yl-(2-trifluoromethylphenyl)methanone], the inhibition at 10 µM worked out at 79%.

Take `O=C(c1ccccc1C(F)(F)F)N1CCN(c2ccc(C#Cc3cccc(O)c3)cn2)CC1` [Example 25, 4-{5-[2-(3-Hydroxyphenyl)-1-ethynyl]-2-pyridyl}piperazino-2-trifluoromethylphenyl methanone]: the inhibition at 10 µM was 97%.

With `CCOC(=O)COc1cccc(C#Cc2ccc(N3CCN(C(=O)c4ccccc4C(F)(F)F)CC3)nc2)c1` [Example 26, Ethyl-2-[3-(2-{6-[4-(2-trifluoromethylbenzoyl)piperazino]-3-pyridyl}-1-ethynyl)-phenoxy]acetate], the inhibition at 10 µM amounted to 27%.

Turning to `O=C(O)COc1cccc(C#Cc2ccc(N3CCN(C(=O)c4ccccc4C(F)(F)F)CC3)nc2)c1` [Example 27, 2-[3-(2-{6-[4-(2-Trifluoromethylbenzoyl)piperazino]-3-pyridyl}-1-ethynyl)phenoxy]-acetic acid], the inhibition at 10 µM was determined as 30%.

On to `O=C(c1cc(Cl)ccc1Cl)N1CCN(c2ccc(C#Cc3cccc(O)c3)cn2)CC1` [Example 28], for which the inhibition at 10 µM was found to be 98%.

As for `CC(=O)Oc1ccccc1C#Cc1ccc(N2CCN(C(=O)c3ccccc3C(F)(F)F)CC2)nc1` [Example 29], the inhibition at 10 µM was 24%.

On to `COc1ccc(C#Cc2ccc(N3CCN(C(=O)c4ccccc4C(F)(F)F)CC3)nc2)cc1` [Example 30, 4-{5-[2-(4-Methoxyphenyl)-1-ethynyl]-2-pyridyl}piperazino-2-trifluoromethylphenyl methanone], for which the inhibition at 10 µM stood at 26%.

For the origin of these results see patent US20080182851A1, “ACETYLENE DERIVATIVES AS STEAROYL COA DESATURASE INHIBITORS” (Glenmark Pharmaceuticals S.A., priority 2006, published 2008).
